Test system: MKN45 (RCB1001) human gastric tumor cell-derived xenograft (CDX) model
Experiment: Anti-tumor activity in MKN45 gastric mouse xenograft (CDX) model (Example 8)
Format: in vivo
Details: Compound A 10 mg/kg oral once per day
Experimental: All mouse studies were approved by the Institutional Animal Care and Use Committee (IACUC) based on guidelines from the National Institutes of Health (NIH). Mice were maintained under pathogen-free conditions, and food and water were provided ad libitum.
The anti-tumor effect of Compound A and irinotecan hydrochloride as single-agents or in combination was assessed in the MKN45 (RCB1001) human gastric tumor cell-derived xenograft (CDX) model. MKN45 was expanded in RPMI1640 with 10% fetal bovine serum. Cells were free of mycoplasma and authenticated by STR profiling, and ten million cells in log growth phase were resuspended in Hanks Balanced Salt Solution containing 50% Matrigel and implanted subcutaneously into the flank of each recipient female Crl:NU-Foxn1nu mouse. Mice were housed in microisolator cages with corn cob bedding with additional enrichment consisting of sterile nesting material (Innovive) and Bio-huts (Bio-Serv). Water (Innovive) and diet (Teklad Global 19% Protein Extruded Diet 2919, Irradiated) were provided ad libitum. The environment was maintained on a 12-hour light cycle at approximately 68-72° F. and 40-60% relative humidity.
Tumor Volume (TV) was calculated using the following formula: TV (mm^3)=(width×width×length)/2. Tumor growth inhibition (TGI) was calculated by [(TV controlfinal−TV treatedfinal)/(TV controlfinal−TV controlinitial)×100]. TV was analyzed for statistical significance utilizing GraphPad Prism version 10.2.2. Repeated Measures 2-Way ANOVA with Dunnet's Multiple Comparisons was utilized, and P-values were derived from data collected on the date of Vehicle group termination and were considered statistically significant if less than 0.05.
Mean tumor volume at dosing start was approximately 190 mm^3, with six mice randomized to each treatment group. Mice were dosed orally, once per day, with Vehicle, Compound A at 10 mg/kg, or dosed for 3 consecutive days followed by 4 days holiday by intraperitoneal (IP) injection of Compound B at 5 mg/kg or 10 mg/kg, or combination of Compound A and Compound B. The vehicle group was a combination of Vehicle A (for Compound A, 0.5% 400 cps methylcellulose with 0.5% Tween-80 in sterile water) and Vehicle B (for irinotecan hydrochloride, Saline).

For Nc1nc(=O)n(-c2ccccc2Cl)c2nc(C(F)(F)F)ccc12 [Compound A], the “Day 25 TGI” value was 56%, the “Tumor Regression Rate on Day 25” value was 0% and the “Day 25 TV (mean)” value (initial TV 191, vehicle 1396) was 726 mm^3. The TGI (irinotecan 5 or 10 mg/kg IP 3 days on/4 days off) was 56%.

Reference: patent publication US20260294915A1, “COMBINATION THERAPY COMPRISING A MAT2A INHIBITOR AND A TOPOISOMERASE INHIBITOR, A SPLICING INHIBITOR SULFONAMIDE, OR A KIF18 INHIBITOR” (IDEAYA BIOSCIENCES, INC., priority 2023, published 2026)
